Results from patent publication US20040086904A1, “Screening assay for cotranslational translocation interfering compounds” (priority 2001, published 2004).

Legend:
[1] = test system: SEAP; test: SP-SEAP assay, secretion of SEAP into the medium; format: cell-based, human; conditions: transiently transfected cells, increasing concentrations
Procedure: Cell Culture and Transient Transfections HEK293 cells are maintained in Dulbeccos' modified Eagle's medium (DMEM, Gibco-BRL), supplemented with 10% heat-inactivated fetal calf serum (FCS, Bio-Whittaker) and 100 Units/ml each of penicillin (BC) and streptomycin (Gibco-BRL) at 37° in a 5% humidified CO2 incubator. HUVEC cells are cultured in endothelial cell basal medium (EBM, Clonetics Corp.) supplemented with 10% FCS, 5×10^−4 M dibutyryl cAMP (Sigma), 1 μg/ml hydrocortisone (Sigma) and 10 ng/ml human EGF (Boehringer) at 37° in a 5% humidified CO2 incubator. VCAM-1 production is stimulated by incubation with 100U/ml TNF-α for ca. 8 hours. For transient transfection, HEK293 cells are seeded into 6-well or 24-well cell culture dishes at a density of 6×10^5 cells/well or 1.5×10^5 cells/well, respectively, the day prior to transfection and grown to 50-70% confluency. […]
Human placental SEAP levels in cell supernatants are determined using either a fluorescence-based assay or an assay that measures light absorbance at 405 nm accompanying hydrolysis of pNPP according to the method described (Berger et al., 1988). […] 20 μl of 120 mM pNPP in 1x SEAP buffer prewarmed to 37° is added and the change in absorbance at 37° is plotted. […] For determination of SEAP levels by a fluorescence-based assay the Atto Phos AP Fluorescent Substrate Sysem (Promega) is used according to the manufacturer's instructions. […]

[2] = biological target: T1, ICAM-1 (Homo sapiens, UniProt P05362); test: Cell-free translation/translocation assay, ICAM-1; format: biochemical; conditions: reticulocyte lysate with dog pancreatic microsomes
T1 construct: Full length cDNAs of the adhesion molecules VCAM-1, ICAM-1 and E-Selectin are transcribed and translated; host or cells: cell-free: coupled TNT reticulocyte lysate (Promega) with dog pancreatic microsomes
T1 sequence (P05362 28-532): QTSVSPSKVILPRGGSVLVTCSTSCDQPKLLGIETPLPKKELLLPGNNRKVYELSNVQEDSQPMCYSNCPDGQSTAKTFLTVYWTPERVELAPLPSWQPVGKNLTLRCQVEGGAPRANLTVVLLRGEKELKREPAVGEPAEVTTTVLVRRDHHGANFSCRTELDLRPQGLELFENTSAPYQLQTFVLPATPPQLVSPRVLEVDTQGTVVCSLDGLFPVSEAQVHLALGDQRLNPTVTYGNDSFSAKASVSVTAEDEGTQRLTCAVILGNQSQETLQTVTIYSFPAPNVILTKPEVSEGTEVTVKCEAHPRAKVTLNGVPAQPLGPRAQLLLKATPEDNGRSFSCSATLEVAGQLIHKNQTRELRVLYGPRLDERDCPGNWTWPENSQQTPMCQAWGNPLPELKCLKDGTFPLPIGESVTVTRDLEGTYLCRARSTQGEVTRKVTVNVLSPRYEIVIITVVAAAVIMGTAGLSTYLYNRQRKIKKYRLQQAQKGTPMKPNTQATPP
Text: (§1) Proteins are radioactively labelled and visualised by autoradlography.

[3] = biological target: T2, E-Selectin (Homo sapiens, UniProt P16581); test: Cell-free translation/translocation assay, E-Selectin; format: biochemical; conditions: reticulocyte lysate with dog pancreatic microsomes, at the concentrations tested
T2 construct: Full length cDNAs of the adhesion molecules VCAM-1, ICAM-1 and E-Selectin are transcribed and translated; host or cells: cell-free: coupled TNT reticulocyte lysate (Promega) with dog pancreatic microsomes
T2 sequence (P16581 22-610): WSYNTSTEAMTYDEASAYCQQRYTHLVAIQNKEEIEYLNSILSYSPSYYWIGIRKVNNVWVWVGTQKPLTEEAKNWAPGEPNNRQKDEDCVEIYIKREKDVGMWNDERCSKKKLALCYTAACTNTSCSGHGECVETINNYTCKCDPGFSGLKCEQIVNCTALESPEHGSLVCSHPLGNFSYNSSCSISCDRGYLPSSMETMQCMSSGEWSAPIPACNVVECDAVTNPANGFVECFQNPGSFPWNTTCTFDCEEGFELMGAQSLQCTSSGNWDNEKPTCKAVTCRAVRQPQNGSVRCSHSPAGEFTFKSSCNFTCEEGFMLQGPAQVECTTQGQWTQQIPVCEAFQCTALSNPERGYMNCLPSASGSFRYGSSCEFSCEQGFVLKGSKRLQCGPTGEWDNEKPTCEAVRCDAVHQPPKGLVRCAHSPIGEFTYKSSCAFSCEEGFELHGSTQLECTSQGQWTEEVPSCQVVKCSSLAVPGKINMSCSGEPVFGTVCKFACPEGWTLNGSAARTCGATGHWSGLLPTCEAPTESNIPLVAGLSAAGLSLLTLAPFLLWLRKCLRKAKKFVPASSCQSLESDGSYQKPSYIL
Text: as §1

[4] = test system: IL-12p40 SP-SEAP fusion construct; test: SP-SEAP assay, secretion of SEAP into the medium; format: cell-based; conditions: transient overexpression in mammalian cells, increasing concentrations
Procedure: (§2) Cell Culture and Transient Transfections HEK293 cells are maintained in Dulbeccos' modified Eagle's medium (DMEM, Gibco-BRL), supplemented with 10% heat-inactivated fetal calf serum (FCS, Bio-Whittaker) and 100 Units/ml each of penicillin (BC) and streptomycin (Gibco-BRL) at 37° in a 5% humidified CO2 incubator. HUVEC cells are cultured in endothelial cell basal medium (EBM, Clonetics Corp.) supplemented with 10% FCS, 5×10^−4 M dibutyryl cAMP (Sigma), 1 μg/ml hydrocortisone (Sigma) and 10 ng/ml human EGF (Boehringer) at 37° in a 5% humidified CO2 incubator. VCAM-1 production is stimulated by incubation with 100U/ml TNF-α for ca. 8 hours. For transient transfection, HEK293 cells are seeded into 6-well or 24-well cell culture dishes at a density of 6×10^5 cells/well or 1.5×10^5 cells/well, respectively, the day prior to transfection and grown to 50-70% confluency. Cells are transfected with 2 μg or 1 μg of plasmid DNA, respectively, using the SuperFect reagent (Qiagen) according to the supplier's recommendations. Cells are incubated either without or with addition of a candidate compound, respectively, at concentrations indicated for ca. 24 to 48 hours. For proteasome inhibition experiments Lactacystin (Calbiochem) is added at a final concentration of 5 μM alone or together with a candidate compound 5 hours post-transfection, respectively.
(§3) Human placental SEAP levels in cell supernatants are determined using either a fluorescence-based assay or an assay that measures light absorbance at 405 nm accompanying hydrolysis of pNPP according to the method described (Berger et al., 1988). Briefly, a 500 μl aliquot of medium is removed from the culture dish, clarified for 1 min at 14,000×g and heated for 5 minutes at 65°. An aliquot of medium (10 μl-100 μl) is adjusted to 1x SEAP buffer (1.0 M diethanolamine, pH 9.8, 0.5 mM MgCl2, 10 mM L-homoarginine) in a final volume of 200 μl in a 96-well flat bottom culture dish (Nunc) and prewarmed to 37° for 10 min. 20 μl of 120 mM pNPP in 1x SEAP buffer prewarmed to 37° is added and the change in absorbance at 37° is plotted. Heating step and inclusion of L-homoarginine in the assay buffer inhibit any endogenous phophatase activity. For determination of SEAP levels by a fluorescence-based assay the Atto Phos AP Fluorescent Substrate Sysem (Promega) is used according to the manufacturer's instructions.
(§4) To further validate the novel assay system claimed in the present invention we generated SP-SEAP fusion constructs similarily to the method as described in example 1, but using the SP of other protein targets playing critical roles in various disease processes and tested their functionality by transient overexpression in mammalian cells in the absence or presence of increasing concentrations of compound CP as described (FIG. 7). […]

[5] = test system: VEGF SP-SEAP construct; test: SP-SEAP assay, secretion of SEAP into the medium; format: cell-based; conditions: transient overexpression in mammalian cells, increasing concentrations, dose dependent, compared to VCAM-1 SP-SEAP
Procedure: as §2, §3, §4

[6] = test system: MCP-1 SP-SEAP fusion construct; test: SP-SEAP assay, secretion of SEAP into the medium; format: cell-based; conditions: transient overexpression in mammalian cells, increasing concentrations
Procedure: as §2, §3, §4

[7] = test system: IL4 SP-SEAP fusion construct; test: SP-SEAP assay, secretion of SEAP into the medium; format: cell-based; conditions: transient overexpression in mammalian cells, increasing concentrations
Procedure: as §2, §3, §4

[8] = test system: VCAMSP(15+4)-SEAP construct; test: SP-SEAP assay, secretion of SEAP into the medium; format: cell-based; conditions: transiently transfected cells, increasing concentrations, dose-dependent
Procedure: as §2, with “For proteasome inhibition experiments Lactacystin (Calbiochem) is added at a final concentration of 5 μM alone or together with a candidate compound 5 hours post-transfection, respectively.” left out
Human placental SEAP levels in cell supernatants are determined using either a fluorescence-based assay or an assay that measures light absorbance at 405 nm accompanying hydrolysis of pNPP according to the method described (Berger et al., 1988). […] 20 μl of 120 mM pNPP in 1x SEAP buffer prewarmed to 37° is added and the change in absorbance at 37° is plotted. […] For determination of SEAP levels by a fluorescence-based assay the Atto Phos AP Fluorescent Substrate Sysem (Promega) is used according to the manufacturer's instructions.
For the establishment and as a first proof of principle of an assay (system) according to the present invention, SP-reporter gene fusion constructs are generated using the SP of compound sensitive and insensitive proteins, respectively, and the mature sequence of placental SEAP as the reporter gene (see FIG. 5). […] Finally, secretion of the reporter SEAP protein into the medium is determined. […]

Structure (SMILES): CCCCC(C)CC1NC(=O)C(Cc2cn(OC)c3ccccc23)N(C)C(=O)C(CC(C)C)NC(=O)C(CC(C)C)N(C)C(=O)C(CC(C)CCCC)NC(=O)C(CCC(=O)OCCC)OC(=O)C(C)N(C)C1=O (centres unmarked) [CP]
- sensitivity of SEAP secretion to the compound [1]: compound-insensitive
- concentration needed to inhibit translocation of ICAM-1, relative to VCAM-1 [2]: 20 to 30 times
- translocation of E-Selectin [3]: resistant
- sensitivity of SEAP secretion to the compound [4]: insensitive
- sensitivity of SEAP secretion to the compound [5]: sensitive
- sensitivity of SEAP secretion to the compound [6]: insensitive
- sensitivity of SEAP secretion to the compound [7]: insensitive
- sensitivity of SEAP secretion to the compound [8]: full sensitivity
